{"source": "ChEMBL document CHEMBL1201862", "about": "“PubChem BioAssay data set” (2004)", "experiment_in_all_cases": "growth of human tumour cells (NCI), 48 h", "key": {"HOP-62": {"system": "HOP-62"}, "UO-31": {"system": "UO-31"}, "SF-539": {"system": "SF-539"}, "HCT-15": {"system": "HCT-15"}, "U-251": {"system": "U-251"}, "MOLT-4": {"system": "MOLT-4"}, "MDA-MB-231": {"system": "MDA-MB-231"}, "SK-MEL-28": {"system": "SK-MEL-28"}, "NCI-H460": {"system": "NCI-H460"}, "ACHN": {"system": "ACHN"}, "OVCAR-8": {"system": "OVCAR-8"}, "NCI-H226": {"system": "NCI-H226"}, "NCI/ADR-RES": {"system": "NCI/ADR-RES"}, "SF-295": {"system": "SF-295"}, "NCI-H522": {"system": "NCI-H522"}, "M14": {"system": "M14"}, "CAKI-1": {"system": "CAKI-1"}, "A498": {"system": "A498"}, "HCT-116": {"system": "HCT-116"}, "SNB-19": {"system": "SNB-19"}, "HCC 2998": {"system": "HCC 2998"}, "SN12C": {"system": "SN12C"}, "OVCAR-3": {"system": "OVCAR-3"}, "K562": {"system": "K562"}, "HOP-92": {"system": "HOP-92"}, "KM12": {"system": "KM12"}, "786-0": {"system": "786-0"}, "UACC-62": {"system": "UACC-62"}, "SW-620": {"system": "SW-620"}, "EKVX": {"system": "EKVX"}, "RXF 393": {"system": "RXF 393"}, "CCRF-CEM": {"system": "CCRF-CEM"}, "RPMI-8226": {"system": "RPMI-8226"}, "MDA-N": {"system": "MDA-N"}, "T47D": {"system": "T47D"}, "DU-145": {"system": "DU-145"}, "SNB-75": {"system": "SNB-75"}, "PC-3": {"system": "PC-3"}, "UACC-257": {"system": "UACC-257"}, "OVCAR-4": {"system": "OVCAR-4"}, "OVCAR-5": {"system": "OVCAR-5"}, "NCI-H23": {"system": "NCI-H23"}, "SR": {"system": "SR"}, "BT-549": {"system": "BT-549"}, "SF-268": {"system": "SF-268"}, "COLO 205": {"system": "COLO 205"}, "MDA-MB-435": {"system": "MDA-MB-435"}, "SK-OV-3": {"system": "SK-OV-3"}, "A549": {"system": "A549"}}, "note": "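Interpolation was linear, between the two tested concentrations surrounding the appropriate level; five concentrations were tested over 48 hours in 96-well plates. GI50 is the concentration that inhibits growth by half.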 Activity calls are given as the source filed them. No stated cut-off is given here; in the data, active = GI50 up to about 1.1 µM and inactive = higher."}
{"smiles": "COC(=O)c1cc(C#N)[nH]c1-c1cccs1", "values": [{"measurement": "GI50", "setting": "HOP-62", "value": "47.8 µM (inactive)"}, {"measurement": "GI50", "setting": "UO-31", "value": "81.8 µM (inactive)"}, {"measurement": "GI50", "setting": "SF-539", "value": "> 100 µM (inactive)"}, {"measurement": "GI50", "setting": "HCT-15", "value": 57.4, "unit": "µM"}, {"measurement": "GI50", "setting": "U-251", "value": "> 100 µM (inactive)"}, {"measurement": "GI50", "setting": "MOLT-4", "value": "> 100 µM (inactive)"}, {"measurement": "GI50", "setting": "MDA-MB-231", "value": "52.7 µM (inactive)"}, {"measurement": "GI50", "setting": "SK-MEL-28", "value": "> 100 µM (inactive)"}, {"measurement": "GI50", "setting": "NCI-H460", "value": "> 100 µM (inactive)"}, {"measurement": "GI50", "setting": "ACHN", "value": "89.9 µM (inactive)"}, {"measurement": "GI50", "setting": "OVCAR-8", "value": "> 100 µM (inactive)"}, {"measurement": "GI50", "setting": "NCI-H226", "value": "> 100 µM (inactive)"}, {"measurement": "GI50", "setting": "NCI/ADR-RES", "value": "33.7 µM (inactive)"}, {"measurement": "GI50", "setting": "SF-295", "value": "86.5 µM (inactive)"}, {"measurement": "GI50", "setting": "NCI-H522", "value": "33.9 µM (inactive)"}, {"measurement": "GI50", "setting": "M14", "value": "> 100 µM (inactive)"}, {"measurement": "GI50", "setting": "CAKI-1", "value": "56.8 µM (inactive)"}, {"measurement": "GI50", "setting": "A498", "value": "37.8 µM (inactive)"}, {"measurement": "GI50", "setting": "HCT-116", "value": "> 100 µM (inactive)"}, {"measurement": "GI50", "setting": "SNB-19", "value": "> 100 µM (inactive)"}, {"measurement": "GI50", "setting": "HCC 2998", "value": "> 100 µM (inactive)"}, {"measurement": "GI50", "setting": "SN12C", "value": "> 100 µM (inactive)"}, {"measurement": "GI50", "setting": "OVCAR-3", "value": "56.5 µM (inactive)"}, {"measurement": "GI50", "setting": "K562", "value": "> 100 µM (inactive)"}, {"measurement": "GI50", "setting": "HOP-92", "value": "30.8 µM (inactive)"}, {"measurement": "GI50", "setting": "KM12", "value": "> 100 µM (inactive)"}, {"measurement": "GI50", "setting": "786-0", "value": "> 100 µM (inactive)"}, {"measurement": "GI50", "setting": "UACC-62", "value": "97.7 µM (inactive)"}, {"measurement": "GI50", "setting": "SW-620", "value": "> 100 µM (inactive)"}, {"measurement": "GI50", "setting": "EKVX", "value": "91.2 µM (inactive)"}, {"measurement": "GI50", "setting": "RXF 393", "value": "22.6 µM (inactive)"}, {"measurement": "GI50", "setting": "CCRF-CEM", "value": "48.6 µM (inactive)"}, {"measurement": "GI50", "setting": "RPMI-8226", "value": "36.6 µM (inactive)"}, {"measurement": "GI50", "setting": "MDA-N", "value": "> 100 µM (inactive)"}, {"measurement": "GI50", "setting": "T47D", "value": "24.4 µM (inactive)"}, {"measurement": "GI50", "setting": "DU-145", "value": "86.9 µM (inactive)"}, {"measurement": "GI50", "setting": "SNB-75", "value": "25.8 µM (inactive)"}, {"measurement": "GI50", "setting": "PC-3", "value": "47.1 µM (inactive)"}, {"measurement": "GI50", "setting": "UACC-257", "value": "> 100 µM (inactive)"}, {"measurement": "GI50", "setting": "OVCAR-4", "value": "> 100 µM (inactive)"}, {"measurement": "GI50", "setting": "OVCAR-5", "value": "> 100 µM (inactive)"}, {"measurement": "GI50", "setting": "NCI-H23", "value": "58.1 µM (inactive)"}, {"measurement": "GI50", "setting": "SR", "value": "> 100 µM (inactive)"}, {"measurement": "GI50", "setting": "BT-549", "value": "31.8 µM (inactive)"}, {"measurement": "GI50", "setting": "SF-268", "value": "> 100 µM (inactive)"}, {"measurement": "GI50", "setting": "COLO 205", "value": "> 100 µM (inactive)"}, {"measurement": "GI50", "setting": "MDA-MB-435", "value": "> 100 µM (inactive)"}, {"measurement": "GI50", "setting": "SK-OV-3", "value": "> 100 µM (inactive)"}, {"measurement": "GI50", "setting": "A549", "value": "> 100 µM (inactive)"}]}
